Assay results taken from patent US20080125663A1, “Pre-And Intra-Operative Imaging of Testicular Torsion” (University of Rochester Medical Center, priority 2006, published 2008).
Entries after “also recorded” stand apart in the source; their conditions may differ.

Tests used:
mammals = details: cited from earlier work; for neuronal toxicity: used in mammals
testes of a rat = test: Near IR fluorescence imaging of testicular perfusion after unilateral interruption of blood flow to the right testis; format: in vivo
Method: Intraoperative video angiography is performed with a laser-fluorescence imaging device (Novadaq Technologies, Inc., Toronto, Canada) consisting of a near infrared (NIR) laser light source and a NIR-sensitive digital camcorder. For measurements, the unit is positioned 30 to 40 cm from the area of interest. ICG, dissolved in water, is then injected as a bolus. When ICG is used as the imaging dye, NIR light emitted by the laser light source induces ICG fluorescence. The fluorescence is typically imaged by a video camera, with optical filtering to block ambient and laser light so that only ICG fluorescence is captured. […] Two rats were subjected to unilateral interruption of blood flow to the right testis. In rat A, a bulldog clamp was used, in rat B, a mosquito clamp (a smaller clamp designed to cut off blood flow in small blood vessels) was used. ICG was administered by IV to each rat to determine the ability to visualize the degree to which the testicle underwent hypoperfusion or lack of perfusion. Prior to administration of ICG, rat A was first subjected to near IR and imaged. […] 0.5 ml of ICG at a concentration of 2.5 mg/ml was then administered by IV. The right spermatic cord was clamped with a bulldog clamp to create vascular obstruction and the testicles were imaged.

[1] = cited from earlier work
[2] = bulldog clamp, 0.5 ml of 2.5 mg/ml ICG IV, imaged through the scrotum

Row | Compound | neuronal toxicity (mammals) | fluorescence of the right testicle after removal of the clamp (reperfusion) (testes of a rat; bulldog clamp removed from the spermatic cord) | fluorescence of the right testicle during clamp obstruction of the right spermatic cord (testes of a rat; bulldog clamp, 0.5 ml of 2.5 mg/ml ICG IV, exposed testes) | fluorescence of the left hemiscrotum (unclamped side) (testes of a rat; [2]) | fluorescence of the right hemiscrotum (clamped side) (testes of a rat; [2]) | differential perfusion seen after occlusion (testes of a rat; mosquito (vascular) clamp, ICG IV) | distribution ([1]; after intravenous injection, with normal vascular permeability) | time to binding, mainly to globulins (1-lipoproteins) ([1]; after intravenous injection) [s] | enterohepatic recirculation ([1]; in vivo) | excretion ([1]; in vivo) | metabolism in the body ([1]; in vivo) | reabsorption from the intestine ([1]; in vivo) | toxicity (mammals; in vivo)
1 | N=C(N)c1ccc(/C=C/c2ccc(C(=N)N)cc2O)cc1 [Fluorogold] | low evidence of neuronal toxicity |  |  |  |  |  |  |  |  |  |  |  | 
2 | CC1(C)C(/C=C/C=C/C=C/C=C2\N(CCCCS(=O)(=O)O)c3ccc4ccccc4c3C2(C)C)=[N+](CCCCS(=O)(=O)[O-])c2ccc3ccccc3c21 [ICG, indocyanine green] | low evidence of neuronal toxicity | restoration of fluorescence; also recorded: Fluoresence of the right testicle was observed | absence of fluorescence | intense fluorescence | low fluorescence | obvious differential perfusion | remains intravascular | 1 to 2 | does not undergo enterohepatic recirculation | excreted exclusively by the liver | not metabolized | not reabsorbed from the intestine | low toxicity
3 | Fast Blue | low evidence of neuronal toxicity |  |  |  |  |  |  |  |  |  |  |  | 
